Data published in patent US5444161A, “Substrates for β-galactosidase” (Microgenics Corporation, priority 1989, dated 1995).
Converted amounts (≈) assume the structure as drawn.

Assays:
[1] = Spontaneous hydrolysis rate of substrates (stability); assay type: physicochemical; details: room temperature; normalized to 10 μg/ml starting concentration of substrate
Method: (§1) Table 1 gives the absorbance wavelength maximum (λmax) for the substrate and the reaction product, the molar extinction coefficient ε for the substrate and the reaction product, the solubility, and the spontaneous hydrolysis rate of the new substrates (stability). ONPG, the standard β-galactosidase substrate, is listed for comparision.
*Hydrolysis is measured at room temperature. Results are normalized to 10
μg/ml starting concentration of substrate.

Solubility of substrates = assay type: physicochemical
Excerpt: as §1

β-galactosidase [2] = molecular target: β-galactosidase (Escherichia coli, UniProt P00722); test: Kinetic properties of substrates with β-galactosidase; assay type: biochemical; details: for Km: four or five substrate concentrations; for Vm Ratio to ONPG: relative to ONPG
Method: (§2) The ability of the subject compounds to act as substrates for β-galactosidase and ED28-digoxigenin+EA was measured and compared with the results obtained with ONPG. ED28-digoxigenin+EA are a β-galactosidase α fragment-digoxigenin conjugate and the α complementation acceptor, respectively. ED28-digoxigenin consists of β-galactosidase amino acids 1-46, with cysteines at positions 1 and 46, and digoxgenin conjugated to the cysteines. Assays involving ED and EA are described in greater detail in U.S. Pat. No. 4,708,929. E28-digoxigenin and EA are usually components of a CEDIA™ assay; however, in this set of experiments, antibodies are not present. Four or five substrate concentrations were used to obtain the results. The turnover figures are given for EA+ED28-digoxigenin, not β-galactosidase.

EA + ED28-digoxigenin = test: Kinetic properties of substrates with EA + ED28-digoxigenin; assay type: biochemical; details: for Km / Vm Ratio to ONPG: no antibodies; for Km: four or five substrate concentrations; for Vm Ratio to ONPG / Turnover % ONPG: relative to ONPG
Method: as §2

[3] = Absorbance wavelength maximum and molar extinction coefficient of substrate and reaction product; assay type: physicochemical; details: for Product λmax / Product ε: reaction product; for Product ε / Substrate ε: molar extinction coefficient
Excerpt: as §1

β-galactosidase [4] = test: CEDIA folate assay with new substrates; assay type: biochemical; details: relative to OCNPG, [Substrate]/Km: DNPG 3.2x, m-CN-NPG 2.5x, NGPG 3.2x; for % Open: absence of antibody; for % Inhib: inhibitory antibody; for High calib % Mod / High calib % Net: saturating analyte
Excerpt: (§3) β-galactosidase-analyte conjugates may be used in a variety of diagnostic assays. The subject compounds may be used in conjunction with these assays. Such assays may be used to determine the presence and/or concentration of various compounds, including specific proteins, carbohydrates, and polynucleotides. The assays may be heterogenous, including ELISA assays. In particular the subject compounds may be employed in CEDIA™ assays. CEDIA™ assays measure the amount of an analyte by means of the ability of the analyte to affect the observed enzyme activity when employing an anti-analyte antibody binding reaction to a β-galactosidase α complementing fragment conjugated to analyte or cross reactive compound. In the absence of free analyte, the observed β-galactosidase activity is lower. Thus in CEDIA™ assays β-galactosidase activity increases as the amount of analyte increases. CEDIA™ assays make use of the α complementation phenomenon between ED and EA as described in detail in U.S. Pat. No. 4,708,929.
(§4) The ability of the new substrates to function in CEDIA™ assays was tested. All values are relative to reaction rates using OCNPG (o-chloro-nitrophenyl-β-D-galactopyranoside). […] CEDIA™ assays for T3 (the thyroid hormone, triiodothyronine), digoxin, and folate were performed.
(§5) The terms in table 3 are defined as follows. [Substrate]/Km is the ratio of the concentation of substrate used in the assay to the Km of the enzyme for that substrate. The %open, %inhibition, %mod, and %net figures are all given relative to the results obtained with OCNPG.
(§6) %Open is the reaction rate in the absence of antibody. The figure given in table 3 is the reaction rate relative to the reaction rate obtained with OCNPG.
(§7) %Inhibition is defined as the difference between the reaction rate rate in the absence of antibody and the reaction rate in the presence of the inhibitory antibody found in the CEDIA™ assays, divided by the reaction rate in the absence of antibody. The figures given in table 3 are relative to the % inhibition figure obtained with OCNPG as substrate.
(§8) %Net is defined as the difference between the reaction rate of a CEDIA™ assay using the test substrate in the absence of analyte and presence of antibody and the same reaction in the presence of a saturating amount of analyte (i.e. maximum attainable reaction rate) and presence of antibody, divided by the difference between the reaction rate using OCNPG in the absence of analyte and presence of antibody, and the reaction rate with OCNPG using a saturating amount of analyte and presence of antibody.
(§9) %Mod is defined as the difference between the reaction rate of a CEDIA™ assay in the absence of analyte and presence of antibody and the same reaction in the presence of a saturating amount of analyte (i.e., maximum attainable reaction rate) and presence of antibody, divided by the same figure obtained for the reaction rate in the presence of a saturating amount analyte. The greater the %mod, the greater the range of analyte concentrations over which the assay will be effective. The figure given in Table 3 is the mod figure obtained for the new subtrate, divided by the %mod figure divided %mod figure obtained for OCNPG.

β-galactosidase [5] = test: CEDIA digoxin assay with new substrates; assay type: biochemical; details: relative to OCNPG, [Substrate]/Km 4.0x; for % Open: absence of antibody; for % Inhib: inhibitory antibody; for High calib % Mod / High calib % Net: saturating analyte
Excerpt: as §3, §4, §5, §6, §7, §8, §9

β-galactosidase [6] = test: CEDIA T3 assay with new substrates; assay type: biochemical; details: for % Open / % Inhib / High calib % Mod / High calib % Net: T3 assay, relative to OCNPG, [Substrate]/Km: DNPG 3.3x, m-CN-NPG 4.1x, NGPG 2.0x; for % Open: absence of antibody; for % Inhib: inhibitory antibody; for High calib % Mod / High calib % Net: saturating analyte
Excerpt: as §3, §4, §5, §6, §7, §8, §9

β-galactosidase [7] = test: CEDIA assays (T3, digoxin and folate), overall; assay type: biochemical
Excerpt: as §3, §4
The terms in table 3 are defined as follows. […]

β-galactosidase (Escherichia coli, UniProt P00722), sequence (P00722 2-1024): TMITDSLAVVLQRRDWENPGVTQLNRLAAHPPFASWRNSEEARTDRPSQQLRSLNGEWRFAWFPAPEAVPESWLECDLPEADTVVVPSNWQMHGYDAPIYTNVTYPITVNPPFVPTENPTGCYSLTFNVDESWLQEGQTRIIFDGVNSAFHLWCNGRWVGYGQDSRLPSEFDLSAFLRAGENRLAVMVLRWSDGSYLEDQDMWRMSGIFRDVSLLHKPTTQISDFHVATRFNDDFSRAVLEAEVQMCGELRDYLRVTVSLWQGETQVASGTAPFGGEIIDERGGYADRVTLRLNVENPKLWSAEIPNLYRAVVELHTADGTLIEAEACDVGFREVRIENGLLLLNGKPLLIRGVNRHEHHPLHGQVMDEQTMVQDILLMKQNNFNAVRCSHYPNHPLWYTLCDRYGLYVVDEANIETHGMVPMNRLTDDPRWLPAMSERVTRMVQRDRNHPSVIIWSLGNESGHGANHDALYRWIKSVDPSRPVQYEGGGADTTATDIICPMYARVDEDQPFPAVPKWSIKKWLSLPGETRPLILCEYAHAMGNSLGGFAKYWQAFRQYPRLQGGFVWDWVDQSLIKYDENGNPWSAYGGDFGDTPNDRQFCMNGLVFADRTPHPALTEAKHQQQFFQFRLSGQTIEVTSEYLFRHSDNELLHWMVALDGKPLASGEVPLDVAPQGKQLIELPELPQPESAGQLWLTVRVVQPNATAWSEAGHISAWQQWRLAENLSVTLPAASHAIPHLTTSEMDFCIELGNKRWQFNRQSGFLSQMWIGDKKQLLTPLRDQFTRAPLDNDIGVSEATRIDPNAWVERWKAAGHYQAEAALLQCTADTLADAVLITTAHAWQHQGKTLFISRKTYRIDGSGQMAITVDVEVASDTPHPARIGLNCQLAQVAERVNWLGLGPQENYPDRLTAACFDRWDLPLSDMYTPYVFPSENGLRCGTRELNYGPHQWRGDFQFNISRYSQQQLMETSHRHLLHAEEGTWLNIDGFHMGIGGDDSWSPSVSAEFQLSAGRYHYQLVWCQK

With O=Cc1cc([N+](=O)[O-])ccc1O[C@@H]1O[C@H](CO)[C@H](O)[C@H](O)[C@H]1O [NSPG] the Hydrolysis [1] was 19 mA/Day, the Solubility (Solubility of substrates) was < 40000 µg/mL and the “solubility (in words)” value (Solubility of substrates) was “high aqueous solubility”. The Km (β-galactosidase [2]) was 334 µM, the “Vm Ratio to ONPG” value (β-galactosidase [2]) was 3.2 and the Km (EA + ED28-digoxigenin) was 0.14 mg/mL. The “Vm Ratio to ONPG” value (EA + ED28-digoxigenin) was 3.0, the “Turnover % ONPG” value (EA + ED28-digoxigenin) was 54% and the “Product λmax” value [3] was 382 nm. The “Product ε” value [3] was 16500 OD/M, the “Substrate λmax” value [3] was 298 nm and the “Substrate ε” value [3] was 14900 OD/M.

In the case of N#Cc1cc(O[C@@H]2O[C@H](CO)[C@H](O)[C@H](O)[C@H]2O)ccc1[N+](=O)[O-] [m-CN-NPG, m-Cyano-p-nitrophenyl-β-D-galactopyranoside], the Hydrolysis [1] was 5 mA/Day, the “% Open” value (β-galactosidase [4]) was 62% and the “% Inhib” value (β-galactosidase [4]) was 93%. For the same compound, the “High calib % Mod” value (β-galactosidase [4]) was 103%, the “High calib % Net” value (β-galactosidase [4]) was 72% and the “% Open” value (β-galactosidase [5]) was 82%. For the same compound, the “% Inhib” value (β-galactosidase [5]) was 91%, the “High calib % Mod” value (β-galactosidase [5]) was 85% and the “High calib % Net” value (β-galactosidase [5]) was 71%. The Solubility (Solubility of substrates) was < 8000 µg/mL, the “Vm Ratio to ONPG” value (β-galactosidase [2]) was 3.0 and the Km (EA + ED28-digoxigenin) was 0.14 mg/mL. The “Vm Ratio to ONPG” value (EA + ED28-digoxigenin) was 2.4, the “Turnover % ONPG” value (EA + ED28-digoxigenin) was 44% and the “% Open” value (β-galactosidase [6]) was 71%. For the same compound, the “% Inhib” value (β-galactosidase [6]) was 100%, the “High calib % Mod” value (β-galactosidase [6]) was 100% and the “High calib % Net” value (β-galactosidase [6]) was 63%. For the same compound, the “T3 assay results on increasing substrate concentration (in words)” value (β-galactosidase [6]; substrate increased from 2.7×Km to 4.1×Km) was “improved”, the “Product λmax” value [3] was 405 nm and the “Product ε” value [3] was 17000 OD/M. The “Substrate λmax” value [3] was 308 nm and the “Substrate ε” value [3] was 9200 OD/M.

With O=[N+]([O-])c1ccc(O[C@@H]2O[C@H](CO)[C@H](O)[C@H](O)[C@H]2O)cc1[N+](=O)[O-] [3,4 DNPG, 3,4-Dinitrophenyl-β-D-galactopyranoside] the Hydrolysis [1] was 6 mA/Day, the “% Open” value (β-galactosidase [4]) was 72% and the “% Inhib” value (β-galactosidase [4]) was 77%. The “High calib % Mod” value (β-galactosidase [4]) was 76%, the “High calib % Net” value (β-galactosidase [4]) was 58% and the “% Open” value (β-galactosidase [5]) was 92%. For the same compound, the “% Inhib” value (β-galactosidase [5]) was 74%, the “High calib % Mod” value (β-galactosidase [5]) was 85% and the “High calib % Net” value (β-galactosidase [5]) was 72%. For the same compound, the Solubility (Solubility of substrates) was 3000 µg/mL (≈ 8.66 mM), the “Vm Ratio to ONPG” value (β-galactosidase [2]) was 3.5 and the Km (EA + ED28-digoxigenin) was 0.19 mg/mL. For the same compound, the “Vm Ratio to ONPG” value (EA + ED28-digoxigenin) was 2.8, the “Turnover % ONPG” value (EA + ED28-digoxigenin) was 70% and the “% Open” value (β-galactosidase [6]) was 73%. For the same compound, the “% Inhib” value (β-galactosidase [6]) was 93%, the “High calib % Mod” value (β-galactosidase [6]) was 88% and the “High calib % Net” value (β-galactosidase [6]) was 71%. The “Product λmax” value [3] was 400 nm, the “Product ε” value [3] was 12400 OD/M and the “Substrate λmax” value [3] was 280 nm. The “Substrate ε” value [3] was 6000 OD/M.

For COc1cc([N+](=O)[O-])ccc1O[C@@H]1O[C@H](CO)[C@H](O)[C@H](O)[C@H]1O [NGPG, o-Methoxy-p-nitrophenyl-β-D-galactopyranoside], the Hydrolysis [1] was 1 mA/Day, the “% Open” value (β-galactosidase [4]) was 85% and the “% Inhib” value (β-galactosidase [4]) was 104%. For the same compound, the “High calib % Mod” value (β-galactosidase [4]) was 102%, the “High calib % Net” value (β-galactosidase [4]) was 84% and the “% Open” value (β-galactosidase [5]) was 81%. For the same compound, the “% Inhib” value (β-galactosidase [5]) was 98%, the “High calib % Mod” value (β-galactosidase [5]) was 85% and the “High calib % Net” value (β-galactosidase [5]) was 72%. The Solubility (Solubility of substrates) was 1000 µg/mL (≈ 3.02 mM), the “affinity compared with ONPG (in words)” value (β-galactosidase [2]) was “somewhat lower affinity than ONPG” and the “Vm Ratio to ONPG” value (β-galactosidase [2]) was 3.7. For the same compound, the “affinity compared with ONPG (in words)” value (EA + ED28-digoxigenin) was “somewhat lower affinity than ONPG”, the Km (EA + ED28-digoxigenin) was 0.28 mg/mL and the “Vm Ratio to ONPG” value (EA + ED28-digoxigenin) was 3.6. For the same compound, the “Turnover % ONPG” value (EA + ED28-digoxigenin) was 56%, the “% Open” value (β-galactosidase [6]) was 41% and the “% Inhib” value (β-galactosidase [6]) was 87%. The “High calib % Mod” value (β-galactosidase [6]) was 82%, the “High calib % Net” value (β-galactosidase [6]) was 37% and the “Product λmax” value [3] was 430 nm. The “Product ε” value [3] was 17600 OD/M, the “Substrate λmax” value [3] was 298 nm and the “Substrate ε” value [3] was 7400 OD/M.

In the case of O=[N+]([O-])c1ccccc1O[C@@H]1O[C@H](CO)[C@H](O)[C@H](O)[C@H]1O [ONPG, o-nitrophenyl-β-D-galactopyranoside, reference compound], the Hydrolysis [1] was 0.4 mA/Day, the Solubility (Solubility of substrates) was 10000 µg/mL (≈ 33.2 mM) and the Km (β-galactosidase [2]) was 266 µM. The “Vm Ratio to ONPG” value (β-galactosidase [2]) was 1.0, the “signal in CEDIA assays (in words)” value (β-galactosidase [7]) was “exceptionally weak signal” and the Km (EA + ED28-digoxigenin) was 0.15 mg/mL. For the same compound, the “Vm Ratio to ONPG” value (EA + ED28-digoxigenin) was 1.0, the “Turnover % ONPG” value (EA + ED28-digoxigenin) was 100% and the “Product λmax” value [3] was 414 nm. The “Product ε” value [3] was 3000 OD/M, the “Substrate λmax” value [3] was 315 nm and the “Substrate ε” value [3] was 2000 OD/M.
